# Experimental data published in ChEMBL document CHEMBL3508140 (2016).
# Assays:
# [1] = Decrease in leukocytes observed following reference intravenous doxorubicin at 1 mg.Kg-1 per week in rat; type: toxicity, organism-based, SD, Blood; design: dose 1 mg.Kg-1, dosed compound id 2.46809e+06, dosed compound name Doxorubicin, dose level High, gender Mixed, regimen Once per week, route intravenous, sampling time 36 Week, study doses 0/0.3/0.6/1 mg.Kg-1; settings: in vivo
# [2] = Excretion of radioactivity in urine following single intravenous 14C-epirubicin at 75 mg.m-2 dose in cancer patients; type: ADME, organism-based; design: dose 75 mg.m-2, dosed compound id 2.46808e+06, dosed compound name 14C-Epirubicin, regimen Single, sampling time 10 Day; settings: human, in vivo, at 75 mg/m2
# [3] = Excretion of radioactivity in faeces following single intravenous 14C-epirubicin at 75 mg.m-2 dose in cancer patients; type: ADME, organism-based, Feces; design: dose 75 mg.m-2, dosed compound id 2.46808e+06, dosed compound name 14C-Epirubicin, regimen Single, sampling time 10 Day; settings: human, in vivo, at 75 mg/m2
# [4] = (§1) Excretory balance of radioactivity in bile following intravenous 14C-epirubicin at 1 mg.Kg-1 dose in rat; type: ADME, organism-based, SD; design: dose 1 mg.Kg-1, dosed compound id 2.46808e+06, dosed compound name 14C-Epirubicin, route intravenous, sampling time 0-1 h; settings: in vivo
# [5] = as §1; type: ADME, organism-based, SD; design: dose 1 mg.Kg-1, dosed compound id 2.46808e+06, dosed compound name 14C-Epirubicin, route intravenous, sampling time 0-2 h; settings: in vivo
# [6] = as §1; type: ADME, organism-based, SD; design: dose 1 mg.Kg-1, dosed compound id 2.46808e+06, dosed compound name 14C-Epirubicin, route intravenous, sampling time 0-4 h; settings: in vivo
# [7] = as §1; type: ADME, organism-based, SD; design: dose 1 mg.Kg-1, dosed compound id 2.46808e+06, dosed compound name 14C-Epirubicin, route intravenous, sampling time 0-6 h; settings: in vivo
# [8] = as §1; type: ADME, organism-based, SD; design: dose 1 mg.Kg-1, dosed compound id 2.46808e+06, dosed compound name 14C-Epirubicin, route intravenous, sampling time 0-8 h; settings: in vivo
# [9] = as §1; type: ADME, organism-based, SD; design: dose 1 mg.Kg-1, dosed compound id 2.46808e+06, dosed compound name 14C-Epirubicin, route intravenous, sampling time 0-12 h; settings: in vivo
# [10] = as §1; type: ADME, organism-based, SD; design: dose 1 mg.Kg-1, dosed compound id 2.46808e+06, dosed compound name 14C-Epirubicin, route intravenous, sampling time 0-24 h; settings: in vivo
# [11] = as §1; type: ADME, organism-based, SD; design: dose 1 mg.Kg-1, dosed compound id 2.46808e+06, dosed compound name 14C-Epirubicin, route intravenous, sampling time 0-48 h; settings: in vivo
# [12] = (§2) Excretory balance of radioactivity in faeces following intravenous 14C-epirubicin at 1 mg.Kg-1 dose in rat; type: ADME, organism-based, SD, Feces; design: dose 1 mg.Kg-1, dosed compound id 2.46808e+06, dosed compound name 14C-Epirubicin, route intravenous, sampling time 0-1 h; settings: in vivo
# [13] = as §2; type: ADME, organism-based, SD, Feces; design: dose 1 mg.Kg-1, dosed compound id 2.46808e+06, dosed compound name 14C-Epirubicin, route intravenous, sampling time 0-2 h; settings: in vivo
# [14] = as §2; type: ADME, organism-based, SD, Feces; design: dose 1 mg.Kg-1, dosed compound id 2.46808e+06, dosed compound name 14C-Epirubicin, route intravenous, sampling time 0-4 h; settings: in vivo
# [15] = as §2; type: ADME, organism-based, SD, Feces; design: dose 1 mg.Kg-1, dosed compound id 2.46808e+06, dosed compound name 14C-Epirubicin, route intravenous, sampling time 0-6 h; settings: in vivo
# [16] = as §2; type: ADME, organism-based, SD, Feces; design: dose 1 mg.Kg-1, dosed compound id 2.46808e+06, dosed compound name 14C-Epirubicin, route intravenous, sampling time 0-8 h; settings: in vivo
# [17] = as §2; type: ADME, organism-based, SD, Feces; design: dose 1 mg.Kg-1, dosed compound id 2.46808e+06, dosed compound name 14C-Epirubicin, route intravenous, sampling time 0-12 h; settings: in vivo
# [18] = as §2; type: ADME, organism-based, SD, Feces; design: dose 1 mg.Kg-1, dosed compound id 2.46808e+06, dosed compound name 14C-Epirubicin, route intravenous, sampling time 0-48 h; settings: in vivo
# [19] = (§3) Excretory balance of radioactivity in urine following intravenous 14C-epirubicin at 1 mg.Kg-1 dose in rat; type: ADME, organism-based, SD; design: dose 1 mg.Kg-1, dosed compound id 2.46808e+06, dosed compound name 14C-Epirubicin, route intravenous, sampling time 0-1 h; settings: in vivo
# [20] = as §3; type: ADME, organism-based, SD; design: dose 1 mg.Kg-1, dosed compound id 2.46808e+06, dosed compound name 14C-Epirubicin, route intravenous, sampling time 0-2 h; settings: in vivo
# [21] = as §3; type: ADME, organism-based, SD; design: dose 1 mg.Kg-1, dosed compound id 2.46808e+06, dosed compound name 14C-Epirubicin, route intravenous, sampling time 0-4 h; settings: in vivo
# [22] = as §3; type: ADME, organism-based, SD; design: dose 1 mg.Kg-1, dosed compound id 2.46808e+06, dosed compound name 14C-Epirubicin, route intravenous, sampling time 0-6 h; settings: in vivo
# [23] = as §3; type: ADME, organism-based, SD; design: dose 1 mg.Kg-1, dosed compound id 2.46808e+06, dosed compound name 14C-Epirubicin, route intravenous, sampling time 0-8 h; settings: in vivo
# [24] = as §3; type: ADME, organism-based, SD; design: dose 1 mg.Kg-1, dosed compound id 2.46808e+06, dosed compound name 14C-Epirubicin, route intravenous, sampling time 0-12 h; settings: in vivo
# [25] = as §3; type: ADME, organism-based, SD; design: dose 1 mg.Kg-1, dosed compound id 2.46808e+06, dosed compound name 14C-Epirubicin, route intravenous, sampling time 0-24 h; settings: in vivo
# [26] = as §3; type: ADME, organism-based, SD; design: dose 1 mg.Kg-1, dosed compound id 2.46808e+06, dosed compound name 14C-Epirubicin, route intravenous, sampling time 0-48 h; settings: in vivo
# [27] = (§4) Excretory balance of radioactivity in bile following intravenous 14C-epirubicin at 0.45 ug.eq.Kg-1 dose in rat; type: ADME, organism-based, SD; design: dose 0.45 ug.eq.Kg-1, dosed compound id 2.46808e+06, dosed compound name 14C-Epirubicin, route intravenous, sampling time 0-1 h, study doses 0.45 ug.eq.Kg-1; settings: in vivo
# [28] = as §4; type: ADME, organism-based, SD; design: dose 0.45 ug.eq.Kg-1, dosed compound id 2.46808e+06, dosed compound name 14C-Epirubicin, route intravenous, sampling time 0-2 h, study doses 0.45 ug.eq.Kg-1; settings: in vivo
# [29] = as §4; type: ADME, organism-based, SD; design: dose 0.45 ug.eq.Kg-1, dosed compound id 2.46808e+06, dosed compound name 14C-Epirubicin, route intravenous, sampling time 0-4 h, study doses 0.45 ug.eq.Kg-1; settings: in vivo
# [30] = as §4; type: ADME, organism-based, SD; design: dose 0.45 ug.eq.Kg-1, dosed compound id 2.46808e+06, dosed compound name 14C-Epirubicin, route intravenous, sampling time 0-6 h, study doses 0.45 ug.eq.Kg-1; settings: in vivo
# [31] = as §4; type: ADME, organism-based, SD; design: dose 0.45 ug.eq.Kg-1, dosed compound id 2.46808e+06, dosed compound name 14C-Epirubicin, route intravenous, sampling time 0-8 h, study doses 0.45 ug.eq.Kg-1; settings: in vivo
# [32] = as §4; type: ADME, organism-based, SD; design: dose 0.45 ug.eq.Kg-1, dosed compound id 2.46808e+06, dosed compound name 14C-Epirubicin, route intravenous, sampling time 0-24 h, study doses 0.45 ug.eq.Kg-1; settings: in vivo
# [33] = as §4; type: ADME, organism-based, SD; design: dose 0.45 ug.eq.Kg-1, dosed compound id 2.46808e+06, dosed compound name 14C-Epirubicin, route intravenous, sampling time 0-48 h, study doses 0.45 ug.eq.Kg-1; settings: in vivo
# [34] = (§5) Excretory balance of radioactivity in faeces following intravenous 14C-epirubicin at 0.45 ug.eq.Kg-1 dose in rat; type: ADME, organism-based, SD, Feces; design: dose 0.45 ug.eq.Kg-1, dosed compound id 2.46808e+06, dosed compound name 14C-Epirubicin, route intravenous, sampling time 0-1 h, study doses 0.45 ug.eq.Kg-1; settings: in vivo
# [35] = as §5; type: ADME, organism-based, SD, Feces; design: dose 0.45 ug.eq.Kg-1, dosed compound id 2.46808e+06, dosed compound name 14C-Epirubicin, route intravenous, sampling time 0-2 h, study doses 0.45 ug.eq.Kg-1; settings: in vivo
# [36] = as §5; type: ADME, organism-based, SD, Feces; design: dose 0.45 ug.eq.Kg-1, dosed compound id 2.46808e+06, dosed compound name 14C-Epirubicin, route intravenous, sampling time 0-4 h, study doses 0.45 ug.eq.Kg-1; settings: in vivo
# [37] = as §5; type: ADME, organism-based, SD, Feces; design: dose 0.45 ug.eq.Kg-1, dosed compound id 2.46808e+06, dosed compound name 14C-Epirubicin, route intravenous, sampling time 0-6 h, study doses 0.45 ug.eq.Kg-1; settings: in vivo
# [38] = as §5; type: ADME, organism-based, SD, Feces; design: dose 0.45 ug.eq.Kg-1, dosed compound id 2.46808e+06, dosed compound name 14C-Epirubicin, route intravenous, sampling time 0-8 h, study doses 0.45 ug.eq.Kg-1; settings: in vivo
# [39] = as §5; type: ADME, organism-based, SD, Feces; design: dose 0.45 ug.eq.Kg-1, dosed compound id 2.46808e+06, dosed compound name 14C-Epirubicin, route intravenous, sampling time 0-24 h, study doses 0.45 ug.eq.Kg-1; settings: in vivo
# [40] = as §5; type: ADME, organism-based, SD, Feces; design: dose 0.45 ug.eq.Kg-1, dosed compound id 2.46808e+06, dosed compound name 14C-Epirubicin, route intravenous, sampling time 0-48 h, study doses 0.45 ug.eq.Kg-1; settings: in vivo
# [41] = (§6) Excretory balance of radioactivity in urine following intravenous 14C-epirubicin at 0.45 ug.eq.Kg-1 dose in rat; type: ADME, organism-based, SD; design: dose 0.45 ug.eq.Kg-1, dosed compound id 2.46808e+06, dosed compound name 14C-Epirubicin, route intravenous, sampling time 0-1 h, study doses 0.45 ug.eq.Kg-1; settings: in vivo
# [42] = as §6; type: ADME, organism-based, SD; design: dose 0.45 ug.eq.Kg-1, dosed compound id 2.46808e+06, dosed compound name 14C-Epirubicin, route intravenous, sampling time 0-2 h, study doses 0.45 ug.eq.Kg-1; settings: in vivo
# [43] = as §6; type: ADME, organism-based, SD; design: dose 0.45 ug.eq.Kg-1, dosed compound id 2.46808e+06, dosed compound name 14C-Epirubicin, route intravenous, sampling time 0-4 h, study doses 0.45 ug.eq.Kg-1; settings: in vivo
# [44] = as §6; type: ADME, organism-based, SD; design: dose 0.45 ug.eq.Kg-1, dosed compound id 2.46808e+06, dosed compound name 14C-Epirubicin, route intravenous, sampling time 0-6 h, study doses 0.45 ug.eq.Kg-1; settings: in vivo
# [45] = as §6; type: ADME, organism-based, SD; design: dose 0.45 ug.eq.Kg-1, dosed compound id 2.46808e+06, dosed compound name 14C-Epirubicin, route intravenous, sampling time 0-8 h, study doses 0.45 ug.eq.Kg-1; settings: in vivo
# [46] = as §6; type: ADME, organism-based, SD; design: dose 0.45 ug.eq.Kg-1, dosed compound id 2.46808e+06, dosed compound name 14C-Epirubicin, route intravenous, sampling time 0-24 h, study doses 0.45 ug.eq.Kg-1; settings: in vivo
smiles,measurement,setting,value
COc1cccc2c1C(=O)c1c(O)c3c(c(O)c1C2=O)C[C@@](O)(C(=O)CO)C[C@@H]3O[C@H]1C[C@H](N)[C@@H](O)[C@H](C)O1 [EPIRUBICIN],WBC_CHANGE,[1],45%
same,Radiolabel recovery,[2],16%
same,Radiolabel recovery,[3],24%
same,Radiolabel recovery,[4],13.22%
same,Radiolabel recovery,[5],18.13%
same,Radiolabel recovery,[6],22.93%
same,Radiolabel recovery,[7],25.25%
same,Radiolabel recovery,[8],28.39%
same,Radiolabel recovery,[9],30.19%
same,Radiolabel recovery,[10],38.44%
same,Radiolabel recovery,[11],47.72%
same,Radiolabel recovery,[12],OUTCOME = Observed
same,Radiolabel recovery,[13],OUTCOME = Observed
same,Radiolabel recovery,[14],OUTCOME = Observed
same,Radiolabel recovery,[15],1.18%
same,Radiolabel recovery,[16],OUTCOME = Observed
same,Radiolabel recovery,[17],1.77%
same,Radiolabel recovery,[18],4.44%
same,Radiolabel recovery,[19],OUTCOME = Observed
same,Radiolabel recovery,[20],OUTCOME = Observed
same,Radiolabel recovery,[21],OUTCOME = Observed
same,Radiolabel recovery,[22],7.31%
same,Radiolabel recovery,[23],OUTCOME = Observed
same,Radiolabel recovery,[24],8.56%
same,Radiolabel recovery,[25],12%
same,Radiolabel recovery,[26],14.74%
same,Radiolabel recovery,[27],0.06%
same,Radiolabel recovery,[28],0.27%
same,Radiolabel recovery,[29],2.01%
same,Radiolabel recovery,[30],5.17%
same,Radiolabel recovery,[31],7.05%
same,Radiolabel recovery,[32],14.72%
same,Radiolabel recovery,[33],17.32%
same,Radiolabel recovery,[34],OUTCOME = Observed
same,Radiolabel recovery,[35],OUTCOME = Observed
same,Radiolabel recovery,[36],OUTCOME = Observed
same,Radiolabel recovery,[37],OUTCOME = Observed
same,Radiolabel recovery,[38],OUTCOME = Not detectable
same,Radiolabel recovery,[39],26%
same,Radiolabel recovery,[40],48.78%
same,Radiolabel recovery,[41],OUTCOME = Observed
same,Radiolabel recovery,[42],OUTCOME = Observed
same,Radiolabel recovery,[43],OUTCOME = Observed
same,Radiolabel recovery,[44],OUTCOME = Observed
same,Radiolabel recovery,[45],0.54%
same,Radiolabel recovery,[46],2.14%
